Blank lines part the entries; values can stand above or below the molecule they belong to.
Assays:
[1] = system: myofibroblast formation; conditions: Ajmal et al. (2003); cited from earlier work
[2] = stability of rifampin and minocycline in PBS with and without tranexamic acid (Example 14); type: physicochemical
[3] = in vitro elution of rifampin and minocycline from p22-27.5 polymers with TXA in release media (Example 15); type: physicochemical; conditions: PBS pH 7.4 without or with TXA (0.05 mg/mL, 5 mg/mL) in the release media, over 25 hours
[4] = time to reach plasma concentrations; type: in vivo; conditions: given preoperatively
[5] = system: blood; test: time to induce blood clotting in vitro in the presence of TYRX (Example 17); type: biochemical; parameters: dose or concentration left out as unconfirmed; conditions: higher amounts of TXA
Method: Tests were conducted to compare the time required to induce blood clotting in vitro when different amounts of hemostatic agent is administered in the presence of TYRX (degradable mesh coated with P22-27.5 containing rifampin and minocycline), as shown in FIG. 24.

[6] = system: blood; test: time to induce blood clotting in vitro, different hemostatic agents (Example 18); type: biochemical; conditions: 1.2 mg of TXA alone
Method: Tests were conducted to compare the time required for different hemostatic agents to induce blood clotting in vitro versus the time required to induce blood clotting in vitro when no hemostatic agent is administered. In particular, the time required to induce blood clotting was plotted for blood alone, TYRX, Surgicel, TYRX with 1.6 mg of TXA, 1.2 mg of TXA alone, and TYRX with 200 mg of TXA. In this example, TYRX refers to a Glycoprene mesh that is coated with P22-27.5 (a polymer in the P22-X family) containing Rifampin and Minocycline.

SMILES: O=S(=O)([O-])CCS.[Na+] [MESNA, sodium 2-mercaptoethane sulfonate]
- myofibroblast formation [1]: diminish myofibroblast formation

- percentage area of rifampin, mixtures with versus without tranexamic acid ([2]; rifampin and minocycline in PBS, regardless of the temperature (RT or 37° C.)): substantially the same
- elution rate from p22-27.5 polymers [3]: not affected
SMILES: CO[C@H]1/C=C/O[C@@]2(C)Oc3c(C)c(O)c4c(O)c(c(/C=N/N5CCN(C)CC5)c(O)c4c3C2=O)NC(=O)/C(C)=C\C=C\[C@H](C)[C@H](O)[C@@H](C)[C@@H](O)[C@@H](C)[C@H](OC(C)=O)[C@@H]1C [rifampin]

- time to reach plasma concentrations [4]: 5 to 15 min
- effect on the stability of rifampin and minocycline ([2]; PBS, RT and 37° C.): does not negatively affect
SMILES: NC[C@H]1CC[C@H](C(=O)O)CC1 [tranexamic acid]
- clotting time [5]: increased
- time to induce blood clotting in vitro [6]: about 19 minutes

From US12447242B2, “Hemostatic devices and methods of use” (MEDTRONIC INC., priority 2016, dated 2025)
